Measured values from patent US11180462B2, “Microbiocidal oxadiazole derivatives” (SYNGENTA PARTICIPATIONS AG, priority 2015, dated 2021).

Columns and labels:
[1] = test system: Puccinia recondita f. Sp. Tritici; assay: Fungicidal activity against Puccinia recondita f. sp. tritici / wheat / leaf disc curative (brown rust); assay type: in vivo; conditions: foliar, 24 h, 200 ppm in the applied formulation, wheat leaf segments, curative (applied 1 day after inoculation), compared to untreated control leaf disks, read-out: disease control
Protocol: Leaf disks or leaf segments of various plant species are cut from plants grown in a greenhouse. The cut leaf disks or segments are placed in multiwell plates (24-well format) onto water agar. The leaf disks are sprayed with a test solution before (preventative) or after (curative) inoculation. Compounds to be tested are prepared as DMSO solutions (max. 10 mg/ml) which are diluted to the appropriate concentration with 0.025% Tween20 just before spraying. The inoculated leaf disks or segments are incubated under defined conditions (temperature, relative humidity, light, etc.) according to the respective test system. A single evaluation of disease level is carried out 3 to 14 days after inoculation, depending on the pathosystem. Percent disease control relative to the untreated check leaf disks or segments is then calculated.
Fungicidal Activity Against Puccinia recondita f. Sp. Tritici/Wheat/Leaf Disc Curative (Brown Rust)
Wheat leaf segments cv. Kanzler are placed on agar in multiwell plates (24-well format). The leaf segments are then inoculated with a spore suspension of the fungus. Plates were stored in darkness at 19° C. and 75% relative humidity. The formulated test compound diluted in water was applied 1 day after inoculation. The leaf segments were incubated at 19° C. and 75% relative humidity under a light regime of 12 hours light/12 hours darkness in a climate cabinet and the activity of a compound was assessed as percent disease control compared to untreated when an appropriate level of disease damage appears in untreated check leaf segments (6 to 8 days after application).
The following compounds at 200 ppm in the applied formulation give at least 80% disease control in this test when compared to untreated control leaf disks under the same conditions, which show extensive disease development.

[2] = test system: Glomerella lagenarium (Colletotrichum lagenarium); assay: Fungicidal activity against Glomerella lagenarium (Colletotrichum lagenarium) liquid culture / cucumber / preventative (anthracnose); assay type: cell-based; conditions: Colletotrichum orbiculare; 20 ppm in the applied formulation; liquid culture (PDB), growth inhibition measured photometrically after 3 to 4 days; compared to untreated control; read-out: disease control
Procedure, shortened: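 Photometric read-out of fungal growth after 2–7 days, expressed as percent antifungal activity versus untreated check. Cryo-stored conidia in PDB; compound at 20 ppm; dark, 24 °C, 96% RH.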

[3] = test system: Puccinia recondita f. Sp. Tritici; assay: Fungicidal activity against Puccinia recondita f. sp. tritici / wheat / leaf disc preventative (brown rust); assay type: in vivo; conditions: foliar, 200 ppm in the applied formulation, wheat leaf segments, preventative, compared to untreated control leaf disks, read-out: disease control
Procedure, shortened: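 Compound application precedes infection: segments of wheat cv. Kanzler, sprayed at 200 ppm, are inoculated with a spore suspension after 1 day. Incubation is at 19° C. with 75% relative humidity and 12 h light/12 h darkness, and control versus untreated leaves is rated 7 to 9 days post-application.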

SMILES	pest or weed control at 200 ppm [1] [%]	inhibition of growth at 20 ppm [2] [%]	pest or weed control at 200 ppm [3] [%]
O=C(CCCCC(F)(F)F)N(Cc1ccc(-c2noc(C(F)(F)F)n2)cc1)C1CC1 [Compound 1.131, N-cyclopropyl-6,6,6-trifluoro-N-[[4-[5-(trifluoromethyl)-1,2,4-oxadiazol-3-yl]phenyl]methyl]-hexanamide]	≥ 80	≥ 80	–
CON(Cc1ccc(-c2noc(C(F)(F)F)n2)cc1)C(=O)OCCCl [Compound 2.17, 2-chloroethyl N-methoxy-N-[[4-[5-(trifluoromethyl)-1,2,4-oxadiazol-3-yl]phenyl]methyl]-carbamate]	≥ 80	≥ 80	–
CCC(C)N(Cc1ccc(-c2noc(C(F)(F)F)n2)cc1)C(=O)C1=CCCC1 (centres unmarked) [Compound 1.377, N-sec-butyl-N-[[4-[5-(trifluoromethyl)-1,2,4-oxadiazol-3-yl]phenyl]methyl]-cyclopentene-1-carboxamide]	≥ 80	≥ 80	–
C#CCC(NS(=O)(=O)CC)C(=O)N(Cc1ccc(-c2noc(C(F)(F)F)n2)cc1)C1CC1 (centres unmarked) [Compound 1.137, N-cyclopropyl-2-(ethylsulfonylamino)-N-[[4-[5-(trifluoromethyl)-1,2,4-oxadiazol-3-yl]phenyl]methyl]pent-4-ynamide]	≥ 80	–	–
CC(=O)N1CCCC1C(=O)N(Cc1ccc(-c2noc(C(F)(F)F)n2)cc1)CC1CCCO1 (centres unmarked) [Compound 1.444, 1-acetyl-N-(tetrahydrofuran-2-ylmethyl)-N-[[4-[5-(trifluoromethyl)-1,2,4-oxadiazol-3-yl]phenyl]methyl]-pyrrolidine-2-carboxamide]	≥ 80	–	–
CCCC(C)(C)C(=O)N(Cc1ccc(-c2noc(C(F)(F)F)n2)cc1)CC1CC1 [Compound 1.204, N-(cyclopropylmethyl)-2,2-dimethyl-N-[[4-[5-(trifluoromethyl)-1,2,4-oxadiazol-3-yl]phenyl]methyl]-pentanamide]	≥ 80	–	–
C#CCN(Cc1ccc(-c2noc(C(F)(F)F)n2)cc1)C(=O)CCc1ccc(Cl)cc1 [Compound 1.160, 3-(4-chlorophenyl)-N-prop-2-ynyl-N-[[4-[5-(trifluoromethyl)-1,2,4-oxadiazol-3-yl]phenyl]methyl]-propanamide]	≥ 80	–	–
CCC(C)N(Cc1ccc(-c2noc(C(F)(F)F)n2)cc1)C(=O)C1CCCC1 (centres unmarked) [Compound 1.376, N-sec-butyl-N-[[4-[5-(trifluoromethyl)-1,2,4-oxadiazol-3-yl]phenyl]methyl]-cyclopentane-carboxamide]	–	≥ 80	≥ 80
CON(C(=O)C1CC1(F)F)C(C)c1ccc(-c2noc(C(F)(F)F)n2)cc1 (centres unmarked) [Compound 1.251, 2,2-difluoro-N-methoxy-N-[1-[4-[5-(trifluoromethyl)-1,2,4-oxadiazol-3-yl]phenyl]ethyl]-cyclopropane-carboxamide]	–	≥ 80	≥ 80
CCC(=O)N(Cc1ccc(-c2noc(C(F)(F)F)n2)cc1)OCc1ccc(Cl)cc1 [Compound 1.550, N-[(4-chlorophenyl)-methoxy]-N-[[4-[5-(trifluoromethyl)-1,2,4-oxadiazol-3-yl]phenyl]methyl]-propanamide]	–	≥ 80	≥ 80
COc1ccccc1CC(=O)N(Cc1ccc(-c2noc(C(F)(F)F)n2)cc1)C1CC1 [Compound 1.113, N-cyclopropyl-2-(2-methoxyphenyl)-N-[[4-[5-(trifluoromethyl)-1,2,4-oxadiazol-3-yl]phenyl]methyl]-acetamide]	–	≥ 80	≥ 80
O=C(N(Cc1ccc(-c2noc(C(F)(F)F)n2)cc1)CC1CCCO1)C1(F)CC1 (centres unmarked) [Compound 1.436, 1-fluoro-N-(tetrahydrofuran-2-ylmethyl)-N-[[4-[5-(trifluoromethyl)-1,2,4-oxadiazol-3-yl]phenyl]methyl]-cyclopropane-carboxamide]	–	≥ 80	≥ 80
